Patent publication US7498406B2, “Substantially cell membrane impermeable compound and use thereof” (priority 1999, dated 2009)
Entries after “also recorded” stand apart in the source; their conditions may differ.

Assays:
[1] = format: in vivo, SCID mice; details: for macroscopic differences to untreated mice / morphological changes in heart, lungs, liver, kidneys, spleen: 10 mg per kg per day; for macroscopic differences to untreated mice: end of experiment; for morphological changes in heart, lungs, liver, kidneys, spleen: light microscopy (not shown); for adverse side effects of administration: 2 or 10 mg per kg per day, subcutaneous
Procedure: FIG. 24. […] The data points and errors represent the mean and SE of the animal weights for the experiment described in FIG. 23.
Female 7 to 9 week old SCID or C57Bl6/J mice were used (Massachusetts General Hospital, Boston, Mass.). Mice were held in groups of 3 to 5 at a 12 hour day and night cycle and were fed with animal chow and water ad libidum. SCID mice were anaesthetised by inhalation of isoflurane, the dorsal skin shaved and cleaned with ethanol, and a suspension of 2.5×10^6 BxPC-3 or HT1080 cells in 0.2 mL of DMEM was injected subcutaneously in the proximal midline. C57Bl6/J mice with Lewis lung carcinomas of 0.6-1.2 cm^3 volumes were sacrificed and the skin overlying the tumour was cleaned with betadine and ethanol. Tumour tissue was excised under aseptic conditions and a suspension of tumour cells in 0.9% saline was made by passage of tumour tissue through a sieve and a series of sequentially smaller 22- to 30-gauge hypodermic needles. C57Bl6/J mice were anaesthetised and prepared as for SCID mice and a suspension of Lewis lung carcinoma cells in 0.2 mL of saline was injected subcutaneously in the proximal midline. Tumours were allowed to establish and grow to a size of ˜0.1 cm^3 after which they were randomised into two groups. The tumours were measured in two diameters and tumour volume was calculated using the relationship, tumour volume=a×b^2×0.52, where a is the longest and b the shortest diameters in cm. Animals were treated with either GSAA or GSAO at doses of 2 or 10 mg per kg per day in 0.2 mL of PBS containing 100 mM glycine. The compounds were administered subcutaneously at a site distant from the tumour. Tumour volume and animal weight was measured every 3 days. The tumours were excised and weighed when the animals were sacrificed.
At the conclusion of the experiment described in FIG. 23B the mice from both treatment groups were examined. […] The heart, lungs, liver, kidneys, and spleen of the GSAA or GSAO-treated and untreated mice were fixed in formaldehyde, embedded in paraffin, sectioned, stained with haematoxylin and eosin and examined by light microscopy.

[2] = system: HDMVE cells; test: Endothelial cell tube formation in Matrigel; format: cell-based, human; details: 0.1, 1 or 100 μM; 18 hours
Procedure: FIG. 21. GSAO perturbs endothelial cell tube formation in Matrigel. Matrigel (100 μl) was added to wells of 96 well plates and allowed to gel for 60 minutes at 37° C. HDMVE cells (10,000 cells per well) in complete media containing 0.1, 1 or 100 μM GSAA or GSAO were seeded onto the Matrigel and the plates were incubated in 5% CO2, 37° C. The phase contrast micrographs were taken after 18 hours incubation.
Endothelial cells arrange into tube-like structures when seeded onto three-dimensional matrices such as the extracellular matrix preparation, Matrigel, or collagen. The tubes can be considered to represent immature blood vessels. Matrigel (100 μl, Becton Dickinson, Bedford, Mass.) was added to wells of 96 well plates (Gibco BRL, Gaithersburg, Md.) and allowed to gel for 60 minutes at 37° C. Human dermal microvascular endothelial (HDMVE) cells were harvested and cultured as described by Stathakis et al (1997), HDMVE cells (8,000 cells per well) in 150 μl of M199 (Gibco BRL, Gaithersburg, Md.) media containing 30% pooled human serum, 50 μg per mL Heparin (Sigma, St. Louis, Mo.), 100 μg per mL Endothelial Cell Growth Supplement (Gibco BRL, Gaithersburg, Md.) and 0.1, 1 or 100 μM GSAA or GSAO were seeded onto the Matrigel and the plates were incubated for 18 hours in 5% CO2, 37° C. Phase contrast micrographs of the wells were collected.

[3] = system: 3T3; test: Proliferation of cultured cells, 72 hr; format: cell-based, murine; details: 5% FCS, 0 to 1 mM
Procedure: FIG. 19. Effect of GSAO on proliferation of non-endothelial cells. 15,000 BxPC-3 (part A), HT1080 (part B), 3T3 (part C) or BVSM (part D) cells per well were seeded into gelatinised 24-well culture plates and allowed to attach for 24 hr. The media was then replaced with DMEM containing 0 to 1 mM GSAO or GSAA and either 5% BCS (part D) or 5% FCS (parts A, B and C). Cells were cultured for 72 hr and then dispersed and counted. The dotted lines indicate the cell number in control wells containing DMEM and 2% BCS (part D) or 2% FCS (parts A, B and C) which represented no to limited proliferation. The data points and errors represent the mean and range of duplicate wells.
BCE (Folkman et al. 1979), BAE, BxPC-3 (ATCC, Bethesda, Md.), HT1080 (Jiang et al., 1999), 3T3 (ATCC, Bethesda, Md.) and BVSM (Hogg et al., 1997) cells were harvested and cultured as indicated. […] Cells were cultured for 0 to 72 hr in 10% CO2 at 37° C. then dispersed in trypsin/EDTA (GibcoBRL, Granc Island, N.Y.), resuspended in Coulter balanced electrolyte solution and counted with a Z1 Coulter counter (Coulter Corp., Miami, Fla.) in all experiments there were two control wells containing DMEM with 1% GPS and either 5% BCS for BCE cells, 2% BCS for BAE and BVSM cells, or 2% FCS for BxPC-3, HT1080 and 3T3 cells. […]

## N[C@@H](CCC(=O)N[C@@H](CSCC(=O)Nc1ccc([As](=O)(O)O)cc1)C(=O)NCC(=O)O)C(=O)O [GSAA, 4-(N-(S-glutathionylacetyl)amino)phenylarsonic acid, reference compound]
[1]
  macroscopic differences to untreated mice: no apparent macroscopic differences
  morphological changes in heart, lungs, liver, kidneys, spleen: no obvious morphological changes
  adverse side effects of administration: no apparent adverse side effects
[2]
  effect on tube formation: no apparent effect on tube formation
[3]
  Proliferation IC50: no significant effect

## NC(CCC(=O)NC(CSCC(=O)Nc1ccc([As]=O)cc1)C(=O)NCC(=O)O)C(=O)O (stereo not shown) [GSAO, 4-(N-(S-glutathionylacetyl)amino)-phenylarsenoxide]
[1]
  macroscopic differences to untreated mice: no apparent macroscopic differences
  morphological changes in heart, lungs, liver, kidneys, spleen: no obvious morphological changes
  adverse side effects of administration: no apparent adverse side effects
[2]
  effect on tube formation: Effects were apparent at 0.1 μM concentration and marked at 100 μM
[3]
  Proliferation IC50: did not affect the proliferation; also recorded: No effect
